From publication PMC2999460, “Porphobilinogen Synthase from the Butterfly, Pieris brassicae: Purification and Comparative Characterization” (2007)

What was measured:
[1] = molecular target: T1, porphobilinogen synthase (PBGS) (Pieris brassicae, UniProt A0A9P0XHI4); assay: biochemical
T1 construct: gene PIBRA_LOCUS11261
T1 sequence (A0A9P0XHI4 1-333): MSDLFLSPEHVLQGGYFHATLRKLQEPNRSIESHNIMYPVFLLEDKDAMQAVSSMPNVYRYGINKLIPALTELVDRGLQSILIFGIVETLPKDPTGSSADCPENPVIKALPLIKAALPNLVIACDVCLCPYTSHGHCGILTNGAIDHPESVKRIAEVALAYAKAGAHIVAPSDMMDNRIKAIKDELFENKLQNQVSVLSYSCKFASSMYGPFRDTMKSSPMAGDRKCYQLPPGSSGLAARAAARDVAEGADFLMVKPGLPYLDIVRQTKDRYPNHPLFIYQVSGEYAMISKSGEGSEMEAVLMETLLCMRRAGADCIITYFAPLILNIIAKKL

[2] = molecular target: T1, porphobilinogen synthase (PBGS); assay: enzyme activity assay (PBG formation, Ehrlich's reagent, […] nm), Lineweaver-Burk analysis; type: biochemical
[3] = molecular target: porphobilinogen synthase (PBGS) from Pieris brassicae (Pieris brassicae (endogenous in adult insects)); assay: native gel or EMSA; native PAGE at 4.5, 6.0, 7.5 and 9.75% polyacrylamide (Hedrick and Smith; buffer system of Davis) with reference proteins: 292.3 kDa for the holoenzyme, set against 36.5 kDa for the subunit by SDS/urea-PAGE; purified PBGS and a partially purified preparation
purified protein = substrate: NCC(=O)CCC(=O)O; assay: purified protein; conditions: zinc active site

## CC(=O)CCC(=O)O [LA, levulinic acid]
[1]
  Ki: 340 µM

## CC(=O)CC(=O)CCC(=O)O [SA, 4,6-dioxo-heptanoic acid]
[2]
  IC50: 4.5 µM

## porphobilinogen synthase (PBGS) from Pieris brassicae (enzyme)
[3]
  stoichiometry N: 8

B1: porphobilinogen synthase (PBGS) (Pieris brassicae) (protein)
chain: MSDLFLSPEHVLQGGYFHATLRKLQEPNRSIESHNIMYPVFLLEDKDAMQAVSSMPNVYRYGINKLIPALTELVDRGLQSILIFGIVETLPKDPTGSSADCPENPVIKALPLIKAALPNLVIACDVCLCPYTSHGHCGILTNGAIDHPESVKRIAEVALAYAKAGAHIVAPSDMMDNRIKAIKDELFENKLQNQVSVLSYSCKFASSMYGPFRDTMKSSPMAGDRKCYQLPPGSSGLAARAAARDVAEGADFLMVKPGLPYLDIVRQTKDRYPNHPLFIYQVSGEYAMISKSGEGSEMEAVLMETLLCMRRAGADCIITYFAPLILNIIAKKL
Purified protein
  Km: 360 µM
